{
  "source": "patent US7772434B2",
  "about": "“Crystalline form of a β2 adrenergic receptor agonist” (Theravance, Inc., priority 2003, dated 2010)",
  "key": {"[1]": {"experiment": "Hygroscopicity / deliquescence on exposure to the atmosphere at high relative humidity", "assay_type": "physicochemical", "conditions": "exposed to the atmosphere for prolonged periods at high relative humidity"}, "[2]": {"experiment": "Solid state stability testing (storage at elevated temperature and humidity)", "assay_type": "physicochemical", "experimental": "Samples (250 mg each) of the monoHCl salt of Examples 9 and 10 were stored at 40° C. and 75% relative humidity in open containers and in closed containers. Additional samples (100 mg each) of the monoHCl salt were stored at 50° C. in closed containers. […] Water percentage of the samples stored at 40° C. was less than 0.25% after two and four weeks of storage.\nThe differential scanning calorimetry trace of Example 14, shown in FIG. 2 was obtained with a TA instruments model DSC2010. Samples were placed in sealed aluminum pans for analysis with an empty pan serving as the reference. Samples were equilibrated at 30° C. and heated at 5° C. per minute to a temperature of 300° C. The instrument was calibrated with an indium standard.\nThermogravimetric analysis was conducted using a TA instruments model Q50. Samples were weighed in aluminum pans and heated from 50° C. to 300° C. at a rate of 10° C./min.\nHPLC analysis was conducted using a MAC MOD Ace-5, C18, 25 cm×4.6 mm, 5 μm column, equilibrated at 30° C. The mobile phases used were: A: 0.1% TFA in 98:2 water:acetonitrile; and B: 0.1% TFA in 10:90 water:acetonitrile. Detection was by UV absorbance at 244 nm. The initial condition was 6% phase B. A flow rate of 1.0 mL/min and gradients of 6 to 30% B over 25 min, 30% to 60% B in 10 min and 60% to 100% B in 2 min were utilized. The monoHCl salt of compound 1 gave a retention time of 19.1 min.\nWater content was determined by coulometric Karl Fischer titration using a Brinkman Metrohm Karl Fischer Model 831 coulometer."}, "[3]": {"conditions": "all storage conditions: 40° C. and 75% relative humidity in open and closed containers, 50° C. in closed containers, after four weeks"}},
  "note": "Structures can show the parent of a compound that is named as a salt.",
  "data": [
    {"smiles": "O=CNc1cc([C@@H](O)CNCCc2ccc(NC[C@H](O)c3ccccc3)cc2)ccc1O", "note": "[monohydrochloride salt of compound 1, N-{2-[4-((R)-2-hydroxy-2-phenylethylamino)phenyl]ethyl}-(R)-2-hydroxy-2-(3-formamido-4-hydroxyphenyl)ethylamine monohydrochloride]", "values": [
      {"measurement": "hygroscopicity / deliquescence", "setting": "[1]", "value": "neither hygroscopic nor deliquescent"},
      {"measurement": "analysis by DSC and TGA", "setting": "[2]; [3]", "value": "no detectable differneces"},
      {"measurement": "change in the appearance of the material", "setting": "[2]; [3]", "value": "no observable change"},
      {"measurement": "chemical degradation, analysis by HPLC", "setting": "[2]; [3]", "value": "no detectable chemical degradation"},
      {"measurement": "thermal stability", "setting": "[2]; at elevated temperatures", "value": "thermally stable"},
      {"measurement": "analysis by DSC", "setting": "[2]; four weeks at 40° C. and 75% humidity in open and closed containers and at 50° C. in a closed container", "value": "no detectable difference"},
      {"measurement": "chemical degradation, analysis by HPLC", "setting": "[2]; four weeks at 40° C. and 75% humidity in open and closed containers and at 50° C. in a closed container, summary statement", "value": "no appreciable chemical degradation"},
      {"measurement": "Water percentage of the samples", "setting": "[2]; samples stored at 40° C. (75% relative humidity), after two and four weeks of storage, Karl Fischer", "value": "less than 0.25%"}
    ]}
  ]
}
